“And” between values parts separate entries of the source, which are not always exact repeats. Equal values may be shown once. Read-outs that look alike come from different tables or passages of the source.
Tests used:
[1] = biological target: mPTP; details: cited from earlier work
[2] = biological target: mitochondrial permeability transition pore (mPTP); test: Frontal affinity chromatography on MMAC-; format: binding, human; details: read-out: Kd on MMAC-(U87MG); mPTP ligand; ammonium acetate [10 mM, pH 7.4]
[3] = biological target: TSPO; details: read-out: Reported Ki using marker ligand PK; cited from earlier work
[4] = biological target: Translocator protein (TSPO) (Homo sapiens, UniProt P30536); test: Frontal affinity chromatography; format: binding; details: for Breakthrough time: MMAC (U87MG), ammonium acetate [10 mM
Sequence of Translocator protein (TSPO) (P30536 whole entry): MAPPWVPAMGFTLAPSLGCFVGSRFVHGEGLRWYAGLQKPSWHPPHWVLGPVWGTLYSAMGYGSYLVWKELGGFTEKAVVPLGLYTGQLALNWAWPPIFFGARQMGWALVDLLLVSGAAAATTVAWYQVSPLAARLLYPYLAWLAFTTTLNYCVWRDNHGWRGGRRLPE

[5] = biological target: DIPY binding site of TSPO (Homo sapiens, UniProt P30536); test: Frontal displacement on MMAC-
Sequence of DIPY binding site of TSPO (P30536 whole entry): as above

[6] = biological target: T1, TSPO (Homo sapiens, UniProt P30536); test: Single displacement study for ranking TSPO ligands on MMAC-; format: binding; details: MMAC-(U87MG)
T1 sequence (P30536 whole entry): as above

[7] = biological target: SUR; details: read-out: Reported Kd; SUR ligand; cited from earlier work
[8] = biological target: sulfonylurea receptor (SUR); test: Frontal affinity chromatography on MMAC-; format: binding, human; details: read-out: Kd on MMAC-(U87MG); SUR ligand; ammonium acetate [10 mM, pH 7.4]
[9] = biological target: SUR; test: Frontal affinity chromatography on MMAC-OT; format: binding, human; details: read-out: Kd on MMAC-OT (HEK-293); SUR ligand; open tubular column
[10] = biological target: T1, TSPO; test: Frontal affinity chromatography on MMAC-OT; format: binding

O=C(O)Cc1ccccc1Nc1c(Cl)cccc1Cl [Diclofenac, diclofenac]
Reported Kd (mPTP induction) [1]: induces mPTP at low micromolar range [1, 37]
Kd [2]: 1200 ± 190 nM

CN1C(=O)CN=C(c2ccccc2F)c2cc([N+](=O)[O-])ccc21 [Flu, flunitrazepam]
Ki [3]: 211 nM
Kd [4]: 290 ± 60 nM
Increase of breakthrough time of DIPY ([5]; MMAC-(U87MG), concentrations greater than 0.5 μM): 10-15%
Displacement of DIPY ([5]; MMAC-(U87MG), concentrations lower than 0.5 μM): did not significantly displace DIPY
Effect on retention of DIPY in single displacement study ([6]; 2.875 μM compound with 0.125 μM DIPY): increased the retention of DIPY
Increase of retention of 0.125 μM DIPY ([6]; 2.875 μM compound, pH 5.9): ~ 15%

C=CC1=C(C)c2cc3[nH]c(cc4nc(cc5[nH]c(cc1n2)c(C)c5CCC(=O)O)C(CCC(=O)O)=C4C)c(C)c3C=C [PIX, protoporphyrin IX]
Ki [3]: 2920 nM
Ki [5]: 3330 ± 1350 nM

COc1ccc(Cl)cc1C(=O)NCCc1ccc(S(=O)(=O)NC(=O)NC2CCCCC2)cc1 [Glibenclamide, glibenclamide]
Kd [7]: 360 ± 50 nM
Kd [8]: 790 ± 390 nM
Kd [9]: 990 ± 520 nM

OCCN(CCO)c1nc(N2CCCCC2)c2nc(N(CCO)CCO)nc(N3CCCCC3)c2n1 [DIPY, dipyridamole]
Kd [10]: 760 ± 250 nM
Ki [3]: 680 nM and 679 nM
Breakthrough time ([4]; pH 5.9]): 100 min
Breakthrough time ([4]; pH 5.9] with 10% methanol): 50 min
Breakthrough time ([4]; pH 7.4]): 200 min

C=C(C)[C@H]1Cc2c(ccc3c2O[C@@H]2COc4cc(OC)c(OC)cc4[C@@H]2C3=O)O1 [Rot, rotenone]
Ki [3]: 20900 nM
Ki [5]: 3400 ± 1270 nM

CCC1=C(C)c2cc3[nH]c(cc4[nH]c(cc5nc(cc1n2)C(C)=C5CC)c(C)c4CCC(=O)O)c(CCC(=O)O)c3C [MIX, mesoporphyrin IX]
Ki [3]: 650 nM
Ki ([5]; read-out: Ki for DIPY binding site on MMAC(U87MG), 0.5 μM DIPY as marker, ammonium acetate [10 mM, pH 5.9]): 1470 ± 120 nM
